Measurements: ChEMBL document CHEMBL1142530, “Chalcogenopyrylium dyes as inhibitors/modulators of P-glycoprotein in multidrug-resistant cells” (Bioorg Med Chem, 2008)
Calls of active or inactive are those of the source. The calls are words filed in the database; no cut-off is given here.

Columns and labels:
MDCK-II [1] = assay: Apparent permeability from basolateral to apical side of MDCK2 cells over expressing MDR1 at 5 uM after 1 hr in presence of 25 uM LSN335984; format: functional, cell-based; conditions: Canis lupus familiaris
MDCK-II [2] = assay: Efflux ratio of permeability from basolateral to apical side to apical to basolateral side in MDCK2 cells over expressing MDR1 to permeability from basolateral to apical side to apical to basolateral side in MDCK2 cells over expressing MDR1 in presence of 25 uM LSN335984; format: functional, Canis lupus familiaris
MDCK-II [3] = assay: Apparent permeability from apical to basolateral side of MDCK2 cells over expressing MDR1 at 5 uM after 1 hr in presence of 25 uM LSN335984; format: functional, cell-based; conditions: Canis lupus familiaris
MDCK-II [4] = assay: Enhancement of calcein-AM uptake in MDCK2 cells over expressing MDR1 after 20 mins; format: functional, cell-based; conditions: Canis lupus familiaris
MDCK-II [5] = assay: Apparent permeability from basolateral to apical side of MDCK2 cells over expressing MDR1 after 1 hr; format: functional, cell-based; conditions: Canis lupus familiaris
MDCK-II [6] = assay: Apparent permeability from apical to basolateral side of MDCK2 cells over expressing MDR1 after 1 hr; format: functional, cell-based; conditions: Canis lupus familiaris
[7] = molecular target: T1, MDR1 (ABCB1, P-glycoprotein) (Homo sapiens, UniProt P08183); assay: (§1) Inhibition of MDR1 overexpressed in MDCK cells at 25 uM relative to LSN335984; format: cell-based; conditions: dog, MDCK-MDR1
T1 sequence (P08183 whole entry): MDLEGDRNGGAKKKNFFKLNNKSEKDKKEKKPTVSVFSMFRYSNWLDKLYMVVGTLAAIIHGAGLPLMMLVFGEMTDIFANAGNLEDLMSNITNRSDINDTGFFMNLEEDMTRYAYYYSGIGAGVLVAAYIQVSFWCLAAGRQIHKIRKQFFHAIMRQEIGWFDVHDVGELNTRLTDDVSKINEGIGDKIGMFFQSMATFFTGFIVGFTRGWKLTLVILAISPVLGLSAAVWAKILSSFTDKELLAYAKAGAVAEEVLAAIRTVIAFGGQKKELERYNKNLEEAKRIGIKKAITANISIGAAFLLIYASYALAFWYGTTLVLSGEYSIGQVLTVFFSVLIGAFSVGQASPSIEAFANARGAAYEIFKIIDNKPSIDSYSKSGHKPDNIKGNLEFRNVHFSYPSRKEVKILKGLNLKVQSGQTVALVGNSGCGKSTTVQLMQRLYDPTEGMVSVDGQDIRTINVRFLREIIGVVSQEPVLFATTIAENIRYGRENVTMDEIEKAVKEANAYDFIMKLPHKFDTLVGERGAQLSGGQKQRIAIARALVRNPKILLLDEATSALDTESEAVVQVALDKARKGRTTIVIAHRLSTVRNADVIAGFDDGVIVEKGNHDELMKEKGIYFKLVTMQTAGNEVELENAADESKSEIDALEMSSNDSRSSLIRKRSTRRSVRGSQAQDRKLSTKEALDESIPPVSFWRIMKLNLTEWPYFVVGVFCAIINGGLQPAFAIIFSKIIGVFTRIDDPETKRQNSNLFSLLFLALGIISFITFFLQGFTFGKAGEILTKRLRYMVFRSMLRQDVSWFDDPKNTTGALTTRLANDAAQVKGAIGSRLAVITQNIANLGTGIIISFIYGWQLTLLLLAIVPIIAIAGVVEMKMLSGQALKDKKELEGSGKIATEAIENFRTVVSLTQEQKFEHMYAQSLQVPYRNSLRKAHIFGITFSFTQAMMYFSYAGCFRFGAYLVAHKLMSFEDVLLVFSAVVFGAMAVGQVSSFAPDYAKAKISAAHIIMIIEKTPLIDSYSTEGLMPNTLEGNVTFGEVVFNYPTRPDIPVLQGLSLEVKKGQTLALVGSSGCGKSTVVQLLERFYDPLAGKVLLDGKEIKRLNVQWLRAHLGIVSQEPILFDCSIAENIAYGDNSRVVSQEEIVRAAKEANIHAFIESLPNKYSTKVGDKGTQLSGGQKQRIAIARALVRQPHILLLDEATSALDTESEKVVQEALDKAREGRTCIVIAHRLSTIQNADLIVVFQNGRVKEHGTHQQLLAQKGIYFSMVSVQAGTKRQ

MDCK-II [8] = assay: Apparent permeability from basolateral to apical side of MDCK2 cells over expressing MDR1 at 5 uM after 1 hr; format: functional, cell-based; conditions: Canis lupus familiaris
[9] = molecular target: T1, MDR1 (ABCB1, P-glycoprotein); assay: Inhibition of MDR1 overexpressed in MDCK cells at 5 uM relative to LSN335984; format: cell-based; conditions: dog
[10] = Octanol-water partition coefficient, log P after 5 hrs by shake flask method; format: physicochemical
MDCK-II [11] = assay: Passive apparent permeability across MDCK2 cells over expressing MDR1 in presence of 25 uM LSN335984 after 1 hr; format: functional, cell-based; conditions: Canis lupus familiaris
Mus musculus [12] = species on record: Mus musculus; assay: Inhibition of verapamil-induced specific ATPase activity in lipid activated mouse P-glycoprotein mdr3 cys-less mutant assessed as ATP hydrolysis per ug of protein at 100 uM
[13] = Inhibition of verapamil-induced ATPase activity in lipid activated mouse P-glycoprotein mdr3 cys-less mutant assessed as ATP hydrolysis per ug of protein
Mus musculus [14] = species on record: Mus musculus; assay: Inhibition of verapamil-induced residual ATPase activity in lipid activated mouse P-glycoprotein mdr3 cys-less mutant assessed as ATP hydrolysis per ug of protein
[15] = (§2) Activity of verapamil-dependent ATPase in lipid activated mouse P-glycoprotein mdr3 cys-less mutant
Mus musculus [16] = species on record: Mus musculus; assay: as §2
[17] = molecular target: ATP-dependent translocase ABCB1 (Homo sapiens, UniProt P08183); assay: as §1; format: cell-based; conditions: dog, mdck, 25 µM
ATP-dependent translocase ABCB1, sequence (P08183 whole entry): as above

Mus musculus [18] = species on record: Mus musculus; assay: Activity of verapamil-dependent ATPase in lipid activated cys-less mouse mdr3 P-glycoprotein assessed per ug of protein
MDCK-II [19] = assay: Inhibition of [3H]vinblastine transport in MDCK2 cells over expressing MDR1 assessed as [3H]vinblastine accumulation after 2.5 mins; format: functional, cell-based; conditions: Canis lupus familiaris
[20] = Inhibition of [3H]vinblastine transport in human PEAK stable cells over expressing MDR1 assessed as [3H]vinblastine accumulation after 2.5 mins; format: functional, cell-based
Mus musculus [21] = species on record: Mus musculus; assay: Inhibition of verapamil-induced ATPase activity in lipid activated mouse P-glycoprotein mdr3 cys-less mutant assessed as ATP hydrolysis at 100 uM
[22] = Binding affinity to P-glycoprotein in presence of Escherichia coli sham lipids
DNA = assay: Binding affinity to calf thymus DNA relative to control; format: nucleic-acid assay; conditions: Bos taurus

Row | Structure (SMILES) | permeability (MDCK-II [1]) | Ratio (MDCK-II [2]) | permeability (MDCK-II [3]) | EC50 (MDCK-II [4]) | permeability (MDCK-II [5]) | permeability (MDCK-II [6]) | inhibition at 25 µM [7] | permeability (MDCK-II [8]) | inhibition at 5 µM [9] | logP at 5 h [10] | Papp (MDCK-II [11]) | Activity (Mus musculus [12]) | IC50 [13] | Activity (Mus musculus [14]) | other results
1 | CN(C)c1ccc(-c2cc(-c3ccccc3)[se+]c(-c3ccc(N)cc3)c2)cc1.F[P-](F)(F)(F)(F)F | 13% | 57 | 18% | 20 µM | 12 ×10⁻⁶ cm/s | 0.35 ×10⁻⁶ cm/s | 22% | 18% | 5% | 0.8 | 0.28 ×10⁻⁶ cm/s | – | – | – | –
2 | Cc1cc(C)c(-c2cc(-c3ccc(N(C)C)cc3)[s+]c(-c3ccc(N(C)C)cc3)c2)c(C)c1 | – | – | – | – | – | – | – | – | – | 2.1 | – | 0.3 nmol/min | 71 µM | 0 nmol/min | –
3 | CN(C)c1ccc(-c2cc(-c3ccccc3)[s+]c(-c3ccc(N)cc3)c2)cc1.F[P-](F)(F)(F)(F)F | 20% | 70 | 19% | 14 µM | 17 ×10⁻⁶ cm/s | 0.37 ×10⁻⁶ cm/s | 14% | 24% | 7% | 0 | 0.31 ×10⁻⁶ cm/s | – | 5.3 µM | 0.9 nmol/min | –
4 | Cc1cc(C)c(-c2cc(-c3ccc(N(C)C)cc3)[te+]c(-c3ccc(N(C)C)cc3)c2)c(C)c1.F[P-](F)(F)(F)(F)F | 5% | 1.4 | 7% | 5.4 µM | 0.42 ×10⁻⁶ cm/s | 0.85 ×10⁻⁶ cm/s | – | 3% | 32% | 2.4 | 0.48 ×10⁻⁶ cm/s | 0.44 nmol/min | 1.2 µM | 0.4 nmol/min | Ki [15]: 0.04 µM; Km (Mus musculus [16]): 16 µM; inhibition (INH) [17]: 230%; Vmax (Mus musculus [18]): 2.67 nmol/min; IC50 (MDCK-II [19]): 9.6 µM; IC50 [20]: 4.3 µM
5 | CCc1cc(-c2ccc(N(C)C)cc2)cc(-c2ccc(N(C)C)cc2)[s+]1 | – | – | – | – | – | – | – | – | – | 0.1 | – | 0.74 nmol/min | 1 µM | 1.3 nmol/min | –
6 | CCCc1cc(-c2ccc(N(C)C)cc2)cc(-c2ccc(N(C)C)cc2)[s+]1.[I-] | 11% | 390 | 8% | 9.8 µM | 37 ×10⁻⁶ cm/s | 0.15 ×10⁻⁶ cm/s | 87% | 11% | 15% | 1.2 | 2.2 ×10⁻⁶ cm/s | 1.37 nmol/min | > 100 µM | 2.5 nmol/min | Activity (Mus musculus [21]): inactive; Kapp [22]: 2.2 ×10⁻⁶ M; Activity (DNA): > 60
7 | Cc1cc(-c2ccc(N(C)C)cc2)cc(-c2ccc(N(C)C)cc2)[s+]1.[I-] | 17% | 14 | 24% | 16 µM | 5.1 ×10⁻⁶ cm/s | 0.58 ×10⁻⁶ cm/s | 74% | 25% | 13% | 0.6 | 0.42 ×10⁻⁶ cm/s | 0.48 nmol/min | 15 µM | 0.5 nmol/min | Kapp [22]: 4.5 ×10⁻⁶ M; Activity (DNA): > 60
8 | CN(C)c1ccc(-c2cc(-c3ccc(N(C)C)cc3)[se+]c(C(C)(C)C)c2)cc1.[I-] | 23% | 161 | 37% | 6.7 µM | 29 ×10⁻⁶ cm/s | 0.23 ×10⁻⁶ cm/s | 67% | 26% | 23% | 1.6 | 0.28 ×10⁻⁶ cm/s | – | – | – | –
9 | Cc1cc(-c2ccc(N(C)C)cc2)[s+]c(-c2ccc(N(C)C)cc2)c1 | – | – | – | – | – | – | – | – | – | 1.2 | – | – | 5.7 µM | 0.9 nmol/min | –
10 | CN(C)c1ccc(-c2cc(-c3cccs3)cc(-c3ccc(N(C)C)cc3)[te+]2)cc1 | – | – | – | – | – | – | – | – | – | 2.2 | – | – | 7.9 µM | 0.9 nmol/min | –
11 | CN(C)c1ccc(-c2cc(-c3ccc(N)cc3)[s+]c(-c3ccc(N(C)C)cc3)c2)cc1.F[P-](F)(F)(F)(F)F | 17% | 1.6 | 16% | 35 µM | 4.2 ×10⁻⁶ cm/s | 5.3 ×10⁻⁶ cm/s | 16% | 19% | 2% | 2.2 | 3.2 ×10⁻⁶ cm/s | 0.93 nmol/min | 0.7 µM | 1.6 nmol/min | –
12 | CN(C)c1ccc(-c2cc(-c3ccc(N4CCOCC4)cc3)[se+]c(-c3ccc(N4CCOCC4)cc3)c2)cc1 | – | – | – | – | – | – | – | – | – | 2.3 | – | – | 55 µM | 0.4 nmol/min | –
13 | c1ccc(-c2cc(-c3ccc(N4CCOCC4)cc3)[s+]c(-c3ccc(N4CCOCC4)cc3)c2)cc1 | – | – | – | – | – | – | – | – | – | 1.3 | – | – | 3.1 µM | 1 nmol/min | –
14 | CN(C)c1ccc(-c2cc(-c3ccc(N)cc3)[se+]c(-c3ccc(N)cc3)c2)cc1.F[P-](F)(F)(F)(F)F | 10% | 17 | 14% | 25 µM | 4.5 ×10⁻⁶ cm/s | 0.34 ×10⁻⁶ cm/s | 29% | 12% | 6% | 2.2 | 0.28 ×10⁻⁶ cm/s | – | > 100 µM | 2.5 nmol/min | Activity (Mus musculus [21]): inactive
15 | CN(C)c1ccc(-c2cc(-c3ccc(N(C)C)cc3)[s+]c(C(C)(C)C)c2)cc1.[I-] | 25% | 134 | 44% | 7.1 µM | 34 ×10⁻⁶ cm/s | 0.53 ×10⁻⁶ cm/s | 60% | 37% | 25% | 1.5 | 0.34 ×10⁻⁶ cm/s | 0.7 nmol/min | 0.88 µM | 1.4 nmol/min | Kapp [22]: 4.7 ×10⁻⁷ M; Activity (DNA): > 60
16 | c1ccc(-c2cc(-c3ccc(N4CCOCC4)cc3)cc(-c3ccc(N4CCOCC4)cc3)[s+]2)cc1 | – | – | – | – | – | – | – | – | – | 2.1 | – | – | 30 µM | 1 nmol/min | –
17 | Nc1ccc(-c2cc(-c3ccc(N4CCOCC4)cc3)cc(-c3ccc(N4CCOCC4)cc3)[s+]2)cc1 | – | – | – | – | – | – | – | – | – | 2.1 | – | – | 11 µM | 0.7 nmol/min | –
